{"source": "ChEMBL document CHEMBL1201862", "about": "“PubChem BioAssay data set” (2004)", "key": {"[1]": {"molecular_target": "T1, Trace amine-associated receptor 1 (Homo sapiens, UniProt Q96RJ0)", "T1 sequence (Q96RJ0 whole entry)": "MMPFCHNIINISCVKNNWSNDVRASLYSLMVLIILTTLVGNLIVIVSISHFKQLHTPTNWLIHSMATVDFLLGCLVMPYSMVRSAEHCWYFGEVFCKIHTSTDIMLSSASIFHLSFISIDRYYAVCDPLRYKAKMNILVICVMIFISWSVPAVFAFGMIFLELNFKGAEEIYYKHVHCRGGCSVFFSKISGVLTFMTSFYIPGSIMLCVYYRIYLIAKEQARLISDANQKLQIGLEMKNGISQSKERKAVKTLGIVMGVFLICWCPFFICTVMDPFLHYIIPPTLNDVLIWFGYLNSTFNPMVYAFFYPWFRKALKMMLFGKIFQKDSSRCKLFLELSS", "test": "Counterscreen for agonists of the human trace amine associated receptor 1 (hTAAR1): Fluorescence-based cell-based high throughput dose response assay to identify hTAAR1 agonist that also desensitize TAAR1 receptor response.", "type": "functional"}, "cells [2]": {"test": "cells", "type": "functional, cell-based"}, "[3]": {"molecular_target": "T1, Trace amine-associated receptor 1", "test": "Fluorescence-based cell-based high throughput dose response assay to identify agonists of the human trace amine associated receptor 1 (TAAR1).", "type": "functional"}, "cells [4]": {"test": "cells", "type": "functional, cell-based", "remark": "listed apart in the source"}, "[5]": {"molecular_target": "5-hydroxytryptamine receptor 2A (Mus musculus, UniProt P35363)", "sequence (P35363 whole entry)": "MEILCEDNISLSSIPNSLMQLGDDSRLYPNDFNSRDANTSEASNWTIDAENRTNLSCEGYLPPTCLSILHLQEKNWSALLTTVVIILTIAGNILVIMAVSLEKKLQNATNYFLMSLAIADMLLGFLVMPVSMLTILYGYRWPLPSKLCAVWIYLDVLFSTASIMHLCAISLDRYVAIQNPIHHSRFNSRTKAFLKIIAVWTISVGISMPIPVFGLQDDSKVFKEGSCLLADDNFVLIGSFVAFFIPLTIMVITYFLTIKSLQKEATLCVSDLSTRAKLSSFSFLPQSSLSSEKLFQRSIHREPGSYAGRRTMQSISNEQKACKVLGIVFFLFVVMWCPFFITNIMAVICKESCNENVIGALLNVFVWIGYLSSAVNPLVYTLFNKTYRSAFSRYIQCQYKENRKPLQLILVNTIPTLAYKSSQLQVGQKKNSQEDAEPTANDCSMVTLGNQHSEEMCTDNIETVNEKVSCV", "type": "functional, cell-based"}, "Mu-type opioid receptor": {"molecular_target": "Mu-type opioid receptor (Homo sapiens, UniProt P35372)", "sequence (P35372 whole entry)": "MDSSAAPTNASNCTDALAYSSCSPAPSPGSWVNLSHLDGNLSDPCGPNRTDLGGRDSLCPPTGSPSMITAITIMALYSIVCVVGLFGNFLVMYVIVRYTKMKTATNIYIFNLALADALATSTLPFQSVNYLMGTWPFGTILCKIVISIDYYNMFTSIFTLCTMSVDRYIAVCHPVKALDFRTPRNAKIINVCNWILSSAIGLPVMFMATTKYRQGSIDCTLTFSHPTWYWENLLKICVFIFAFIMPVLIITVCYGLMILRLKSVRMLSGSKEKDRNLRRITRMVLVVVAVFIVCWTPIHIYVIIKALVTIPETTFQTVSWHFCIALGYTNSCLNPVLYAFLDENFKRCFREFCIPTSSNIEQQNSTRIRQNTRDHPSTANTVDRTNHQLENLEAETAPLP", "type": "functional, cell-based"}, "HEK293 [6]": {"test_system": "HEK293", "test": "cells", "details": "Homo sapiens"}, "HEK293 [7]": {"test_system": "HEK293", "test": "cells", "details": "Homo sapiens", "remark": "listed apart in the source"}, "[8]": {"test": "HEp-2 cell cytotoxicity, dose response, cytotoxicity control for RSV inhibitor project, HTS (AID 2410)", "type": "functional", "details": "human respiratory syncytial virus"}, "[9]": {"test": "cytotoxicity in OVCAR8 ovarian cancer cells, dose response, PAX8 project, cell-based, plate reader, dry powder samples (AID 743197)", "type": "functional", "details": "OVCAR-8"}, "[10]": {"test": "NIH:OVCAR-3 ovarian cancer cell cytotoxicity, dose response, PAX8 inhibitor project, plate reader, dry powder samples (AID 743044)", "type": "functional, cell-based"}, "Paired box protein Pax-8": {"molecular_target": "Paired box protein Pax-8 (Homo sapiens, UniProt Q06710)", "sequence (Q06710 whole entry)": "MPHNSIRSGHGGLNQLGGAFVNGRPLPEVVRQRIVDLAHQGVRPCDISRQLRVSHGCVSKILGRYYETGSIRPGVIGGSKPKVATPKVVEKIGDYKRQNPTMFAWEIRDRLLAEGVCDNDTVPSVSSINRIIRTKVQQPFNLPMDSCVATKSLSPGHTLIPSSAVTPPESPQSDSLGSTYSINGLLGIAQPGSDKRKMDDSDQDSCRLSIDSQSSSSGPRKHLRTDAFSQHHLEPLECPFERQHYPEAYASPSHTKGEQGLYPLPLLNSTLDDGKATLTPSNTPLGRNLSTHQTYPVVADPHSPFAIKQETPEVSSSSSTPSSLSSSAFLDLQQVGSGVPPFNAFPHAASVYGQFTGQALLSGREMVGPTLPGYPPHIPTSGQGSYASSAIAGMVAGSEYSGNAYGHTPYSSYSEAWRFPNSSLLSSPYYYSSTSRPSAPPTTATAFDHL", "test": "inhibitors of PAX8-driven TPO luciferase reporter, dose response, RMG-I cells, cherry-pick (AID 687027);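 also: luciferase reporter driven by Pax8 target thyroperoxidase promoter measured by SteadyGlo luminescence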", "type": "functional, cell-based"}, "[11]": {"test": "IGROV1 ovarian cancer cell cytotoxicity, dose response, PAX8 inhibitor project, plate reader, dry powder samples (AID 743043)", "type": "functional, cell-based", "details": "IGROV-1"}, "[12]": {"test": "human group III sPLA2 inhibitors, dose response, biochemical, QFRET, IC50 (AID 743457);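 also: green fluorescence rise as the enzyme cleaves BODIPY PC-A2 in liposomes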"}, "[13]": {"molecular_target": "T2, ATP-dependent translocase ABCB1 (Homo sapiens, UniProt P08183)", "T2 sequence (P08183 whole entry)": "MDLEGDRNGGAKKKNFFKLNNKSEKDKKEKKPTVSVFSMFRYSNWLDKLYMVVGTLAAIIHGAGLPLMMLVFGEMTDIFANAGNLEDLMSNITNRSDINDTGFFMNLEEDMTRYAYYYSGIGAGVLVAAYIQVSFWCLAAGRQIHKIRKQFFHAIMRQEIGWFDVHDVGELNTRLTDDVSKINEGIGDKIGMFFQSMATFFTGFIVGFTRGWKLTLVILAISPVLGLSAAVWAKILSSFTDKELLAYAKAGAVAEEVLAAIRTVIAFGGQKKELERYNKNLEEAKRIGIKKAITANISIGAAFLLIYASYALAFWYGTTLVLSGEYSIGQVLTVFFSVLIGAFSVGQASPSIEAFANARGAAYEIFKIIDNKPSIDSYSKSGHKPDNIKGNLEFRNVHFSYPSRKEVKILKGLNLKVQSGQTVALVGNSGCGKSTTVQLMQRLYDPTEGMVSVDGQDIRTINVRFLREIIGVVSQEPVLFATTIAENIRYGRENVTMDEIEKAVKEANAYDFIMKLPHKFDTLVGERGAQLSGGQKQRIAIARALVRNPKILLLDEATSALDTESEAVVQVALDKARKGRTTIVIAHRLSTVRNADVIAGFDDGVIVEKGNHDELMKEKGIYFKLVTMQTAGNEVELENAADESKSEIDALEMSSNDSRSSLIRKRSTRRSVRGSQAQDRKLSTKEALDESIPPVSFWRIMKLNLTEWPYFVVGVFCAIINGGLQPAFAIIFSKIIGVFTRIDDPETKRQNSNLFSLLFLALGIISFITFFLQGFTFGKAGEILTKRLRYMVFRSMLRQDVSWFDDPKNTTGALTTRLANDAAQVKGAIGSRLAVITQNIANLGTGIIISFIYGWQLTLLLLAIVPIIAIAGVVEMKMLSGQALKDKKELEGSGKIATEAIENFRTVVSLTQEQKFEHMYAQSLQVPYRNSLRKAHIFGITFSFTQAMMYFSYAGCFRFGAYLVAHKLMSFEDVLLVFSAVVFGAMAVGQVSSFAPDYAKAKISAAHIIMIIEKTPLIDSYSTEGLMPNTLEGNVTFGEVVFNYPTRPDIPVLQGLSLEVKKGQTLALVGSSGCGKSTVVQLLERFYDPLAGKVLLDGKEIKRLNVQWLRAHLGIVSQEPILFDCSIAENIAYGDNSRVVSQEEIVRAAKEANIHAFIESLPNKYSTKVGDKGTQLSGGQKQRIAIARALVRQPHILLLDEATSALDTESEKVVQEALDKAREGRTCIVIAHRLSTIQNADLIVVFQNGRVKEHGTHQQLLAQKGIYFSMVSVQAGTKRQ", "test": "ABCB1 efflux inhibitor potency, dose response, Jurkat-DNR cells, JC-1, flow cytometry, set 2 (AID 504569);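 also: potency of pump inhibitors that raise cellular JC-1 green fluorescence up to the nicardipine level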", "type": "functional", "details": "read-out: EC50_MICROM_"}, "[14]": {"molecular_target": "T2, ATP-dependent translocase ABCB1", "test": "ABCG2 efflux pump inhibitor potency, dose response, Ig-MXP3 cells, JC-1, flow cytometry, set 2 (AID 504566);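 also: flow cytometry median green fluorescence of retained JC-1 dye; potency of efflux pump inhibition measured as rising substrate retention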", "type": "functional", "details": "read-out: EC50_MICROM_"}, "[15]": {"molecular_target": "DNA dC->dU-editing enzyme APOBEC-3G (Homo sapiens, UniProt Q9HC16)", "sequence (Q9HC16 whole entry)": "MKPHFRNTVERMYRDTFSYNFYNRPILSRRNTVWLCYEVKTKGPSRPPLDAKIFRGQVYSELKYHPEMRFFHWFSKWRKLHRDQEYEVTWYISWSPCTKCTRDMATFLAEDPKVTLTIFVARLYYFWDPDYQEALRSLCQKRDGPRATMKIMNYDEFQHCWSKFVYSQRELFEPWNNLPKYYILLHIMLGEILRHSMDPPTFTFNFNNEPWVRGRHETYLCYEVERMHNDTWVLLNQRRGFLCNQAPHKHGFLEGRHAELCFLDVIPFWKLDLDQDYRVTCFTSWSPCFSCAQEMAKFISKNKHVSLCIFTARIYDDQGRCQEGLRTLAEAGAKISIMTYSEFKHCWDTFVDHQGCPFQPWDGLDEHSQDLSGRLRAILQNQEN", "type": "functional"}, "[16]": {"molecular_target": "DNA dC->dU-editing enzyme APOBEC-3A (Homo sapiens, UniProt P31941)", "sequence (P31941 whole entry)": "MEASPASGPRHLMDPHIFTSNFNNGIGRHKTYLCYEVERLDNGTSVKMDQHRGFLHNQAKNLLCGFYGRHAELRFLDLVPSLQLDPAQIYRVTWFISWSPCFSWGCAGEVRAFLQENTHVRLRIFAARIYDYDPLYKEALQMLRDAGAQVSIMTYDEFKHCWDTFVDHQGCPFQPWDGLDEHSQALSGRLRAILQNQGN", "test": "Dose Response confirmation of small molecule APOBEC3A DNA Deaminase Inhibitors via a fluorescence-based single-stranded DNA deaminase assay. [Related pubchem assays (depositor defined):AID493011, AID493024]", "type": "functional"}, "Streptococcus": {"test_system": "Streptococcus", "test": "Group A Streptococcus viability loss, dose response, counter-screen for streptokinase expression inhibitor project, luminescence, BacTiterGlo (AID 1915);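 also: potency for reduction of bacterial viability or growth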", "type": "functional, organism-based"}, "[17]": {"test_system": "Streptococcus sp. 'group A'", "test": "growth inhibition of control SK(-) GAS strain, dose response, counter-screen for streptokinase expression inhibitor project, luminescence, kanamycin, BacTiterGlo, confirmation (AID 1900)", "type": "functional, organism-based"}, "Vero": {"test_system": "Vero", "test": "cells", "type": "functional, cell-based", "details": "Chlorocebus sabaeus"}, "cells [18]": {"test": "cells"}, "[19]": {"molecular_target": "T3, Adenosylmethionine-8-amino-7-oxononanoate aminotransferase (Mycobacterium tuberculosis, UniProt P9WQ81)", "T3 sequence (P9WQ81 whole entry)": "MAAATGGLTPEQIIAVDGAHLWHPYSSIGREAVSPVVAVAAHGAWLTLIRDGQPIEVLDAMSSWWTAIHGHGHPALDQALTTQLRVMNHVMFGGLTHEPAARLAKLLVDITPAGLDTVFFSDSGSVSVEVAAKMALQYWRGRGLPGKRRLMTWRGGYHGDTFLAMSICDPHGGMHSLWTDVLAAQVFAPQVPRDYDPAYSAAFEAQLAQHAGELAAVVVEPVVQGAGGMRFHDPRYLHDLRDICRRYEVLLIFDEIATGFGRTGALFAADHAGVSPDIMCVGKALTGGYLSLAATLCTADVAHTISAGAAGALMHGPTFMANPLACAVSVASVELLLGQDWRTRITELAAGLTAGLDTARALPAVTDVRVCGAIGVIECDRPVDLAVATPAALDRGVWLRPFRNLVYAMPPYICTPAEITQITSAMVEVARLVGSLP", "test": "Mycobacterium tuberculosis BioA enzyme inhibitor Measured in Biochemical System Using Plate Reader - 2163-02_Inhibitor_Dose_CherryPick_Activity.", "type": "functional, Mycobacterium tuberculosis UT205"}, "[20]": {"molecular_target": "Ras and Rab interactor 1/Tyrosine-protein kinase ABL1 (Homo sapiens, UniProt P00519+Q13671)", "type": "functional"}}, "note": "“And” between values parts separate entries of the source, which are not always exact repeats. Identical values can stand only once. The source made the active and inactive calls.", "data": [{"smiles": "COc1cccc(Nc2nc(NCCO)c3ccccc3n2)c1", "values": [{"measurement": "IC50", "setting": "[1]", "result": "14 µM (inactive)"}, {"measurement": "IC50", "setting": "cells [2]", "result": "> 29.9 µM (inactive)"}, {"measurement": "EC50", "setting": "[3]", "result": "4.4 µM (active)"}, {"measurement": "EC50", "setting": "cells [4]", "result": "> 29.9 µM (inactive)"}]}, {"smiles": "COc1ccc(CN2CCN(C(=O)c3ccco3)CC2)c(OC)c1OC", "values": [{"measurement": "EC50", "setting": "[5]", "result": "6.39 µM (active)"}, {"measurement": "EC50", "setting": "Mu-type opioid receptor", "result": "92.5 µM (inactive)"}]}, {"smiles": "COc1cc(OC)c(-c2nn3c(C4CCCCC4)nnc3s2)cc1OC", "values": [{"measurement": "EC50", "setting": "HEK293 [6]", "result": "> 59.6 µM (inactive)"}, {"measurement": "EC50", "setting": "HEK293 [7]", "result": "> 59.6 µM (inactive)"}, {"measurement": "CC50", "setting": "[8]", "result": "33.1 µM (active)"}]}, {"smiles": "COc1cccc(-c2ccc3c(c2)[C@@H]2[C@@H](CCN2S(=O)(=O)c2ccccc2OC)[C@H](CO)N3C)c1", "values": [{"measurement": "AC50", "setting": "[9]", "result": "27.8 µM (active)"}, {"measurement": "AC50", "setting": "[10]", "result": "18 µM (active)"}, {"measurement": "AC50", "setting": "Paired box protein Pax-8", "result": "10.3 µM (active)"}, {"measurement": "AC50", "setting": "[11]", "result": "50.6 µM (active)"}]}, {"smiles": "O=C(Cc1cccs1)NNC(=S)NCc1ccc(Cl)cc1", "values": [{"measurement": "IC50", "setting": "[12]", "result": "> 122 µM (inactive)"}]}, {"smiles": "O=C(c1ccccc1)N1CCN(c2cc(-c3ccccc3)nc3cc(-c4cccc(Cl)c4)nn23)CC1", "values": [{"measurement": "EC50", "setting": "[13]", "result": "2.26 µM (active) and 4 µM (active)"}, {"measurement": "EC50", "setting": "[14]", "result": "1.05 µM (active) and 1.81 µM (active)"}]}, {"smiles": "O=C(NNC(=S)Nc1ccccc1)c1ccc2ncccc2c1", "values": [{"measurement": "IC50", "setting": "[12]", "result": "> 122 µM (inactive)"}]}, {"smiles": "CCN1/C(=C\\C(C)=O)Sc2ccc(OC)cc21", "values": [{"measurement": "IC50", "setting": "[15]", "result": "2.89 µM (active)"}, {"measurement": "IC50", "setting": "[16]", "result": "2.69 µM (active)"}]}, {"smiles": "COc1cc(C(=O)NNC(=S)NC(=O)c2ccc3c(c2)OCO3)cc(OC)c1OC", "values": [{"measurement": "IC50", "setting": "[12]", "result": "> 122 µM (inactive)"}, {"measurement": "EC50", "setting": "Streptococcus", "result": "3.37 µM (active)"}, {"measurement": "EC50", "setting": "[17]", "result": "1.36 µM (active)"}]}, {"smiles": "O=C(O)c1cccnc1Nc1ccc(Cl)cc1", "values": [{"measurement": "CC50", "setting": "[8]", "result": "14.7 µM (active)"}, {"measurement": "IC50", "setting": "Vero", "result": "17.3 µM (active)"}, {"measurement": "IC50", "setting": "cells [18]", "result": "7.51 µM (active)"}]}, {"smiles": "CN(C)C(=S)N=c1ssc(=S)n1Cc1cccnc1", "values": [{"measurement": "EC50", "setting": "HEK293 [6]", "result": "> 59.6 µM (inactive)"}, {"measurement": "EC50", "setting": "HEK293 [7]", "result": "> 59.6 µM (inactive)"}]}, {"smiles": "CC(C)(C)[S@+]([O-])N1Cc2cc(C(=O)NCc3ccccc3F)nc(-c3cccc(-c4cccnc4)c3)c2[C@@H]1CCO", "values": [{"measurement": "AC50", "setting": "[19]", "result": "9.55 µM (active)"}]}, {"smiles": "CCNC(=O)C[C@H]1CC[C@@H]2[C@@H](COc3ccc(NC(=O)Nc4cccc(F)c4)cc3C(=O)N2C)O1", "values": [{"measurement": "AC50", "setting": "[19]", "result": "4.35 µM (active)"}]}, {"smiles": "O=C(c1ccccc1)N1CCN(c2cc(-c3ccccc3)nc3cc(-c4cccc(F)c4)nn23)CC1", "values": [{"measurement": "EC50", "setting": "[13]", "result": "5.82 µM (active)"}, {"measurement": "EC50", "setting": "[14]", "result": "2.41 µM (active)"}]}, {"smiles": "Cc1ccc(S(=O)(=O)N2CCN(C(=O)Cn3cnc4c3c(=O)n(C)c(=O)n4C)CC2)cc1C", "values": [{"measurement": "IC50", "setting": "[20]", "result": "21.5 µM (inactive)"}]}]}
